Tests used:
in vivo = details: rat, 10 mg/kg
Description: Method: Adult male Sprague/Dawley rats (anesthetized with ethylcarbamate) were given intra-rectal aqueous microenemas. Microenemas are defined as small volume (0.3 ml) aqueous solutions containing drug/adjuvant compounds, administered with a 1 cc syringe at an intra-rectal depth of 2.5 cm. Bioavailabilities versus intravenous administration were calculated as a measure of drug delivery according to the following formula: [formula] wherein

[1] = rat, in vivo; for % Bioavailability ± SEM, Gentamicin: 90 min
Description: (§1) Microenemas are defined as small volume (0.3 ml) aqueous solutions containing drug/adjuvant compounds, administered with a 1 cc syringe at an intra-rectal depth of 2.5 cm.
The cefoxitin or gentamicin was administered as sodium cefoxitin or gentamicin sulfate at 10 mg/kg body weight. The adjuvants were administered at 20 mg/kg body weight and n represents the number of animals.

[2] = rat, in vivo, 10 mg/kg, 1.5 h
Description: as §1
AUC means area under serum drug level curve from t=0 minutes to t=90 minutes.
Gentamicin bioavailability: Concentration curves for chlorpromazine and perphenazine in rat microenema rectal delivery system.

Row | Compound | % Bioavailability ± SEM, Gentamicin [1] | other results
1 | CO[C@@]1(NC(=O)Cc2cccs2)C(=O)N2C(C(=O)O)=C(COC(N)=O)CS[C@@H]21 [Cefoxitin, (6R-cis)-3-[[(Aminocarbonyloxy]methyl]-7-methoxy-8-oxo-7-[(2-thienylacetyl))amino]-5-thia-1-azabicyclo [4.2.0]oct-2-ene-2-carboxylic acid] |  | bioavailability at 1.5 h (in vivo): 2 ± 0.6%
2 | CN(C)CCCN1c2ccccc2Sc2ccc(Cl)cc21 [Chlorpromazine, chlorpromazine] | 107 ± 6.2% | 
3 | OCCN1CCN(CCCN2c3ccccc3Sc3ccc(Cl)cc32)CC1 [Perphenazine, perphenazine] | 100 ± 8.3% | 
4 | CN1CCN(CCCN2c3ccccc3Sc3ccc(Cl)cc32)CC1 [Prochlorperazine] | 76 ± 10.9% | 
5 | CSc1ccc2c(c1)N(CCC1CCCCN1C)c1ccccc1S2 (stereo not shown) [Tiorioazine, thioridazine] | 115 ± 11.5% | 
6 | Gentamicin |  | % Bioavailability ± SEM, Gentamicin (adjuvant: None) ([1]; 10 mg/kg, 1.5 h): 1 ± 0.7%; Control bioavailability (without adjuvant) [2]: 1 ± 0.7%

Source: US4425337A, “Adjuvants for rectal delivery of drug” (priority 1981, dated 1984)
